Square brackets hold non-standard residues; d marks the D form. Peptide text beside a SMILES is read from it.

For data set [1], the system named is "Swiss" strain male mouse. Kind of data set: Acute toxicity (lethality) in mouse, oral. The data set is classed as in vivo. As to conditions: for Mouse LD50: Swiss male mouse, fasted 15 hours, suspended in peanut oil, gastric probe. How it is done: The acute toxicity was assayed in "Swiss" strain male mouse weighing 20-24 g. which were held, before the test, in the cages for 10 days at standard ambient conditions (temperature 22° C, humidity about 50%) and kept on a controlled diet (Altromin).
Before the test, the animals were deprived of food for 15 hours, while leaving water "ad libitum".
Lethality was determined on 10 animals for each group-dose by using on the whole 60 animals for each product. For administration, the products were suspended into peanut oil and administered at the maximum volume of 0.1 ml/10 g. of body weight, by means of a gastric probe.

Data set [2] concerns female rats of "Wistar" strain. Briefly: Gastro-protective activity, Shay method (pylorus tying) in rats. Particulars: 100 mg/Kg in peanut oil, 18 hours after administration; for Rat (Shay test) Ulcer depth M ± es: arbitrary values 1 to 4, peanut oil controls 2.4 ± 0.5; for Rat (Shay test) No. of ulcers M ± es: ulcers in the rumen, peanut oil controls 10.7 ± 2.2. In kind it is in vivo, rat. How it is done:
Gastro-protective activity of the products was assayed on rats by employing the Shay method (Shay H., Komarov, S. A., Fels, S. S., Meranze, D;, Gruenstein, M. and Siplet, H:Gastroenterology, 5, 43-61, 1945).
The investigation was performed on female rats of "Wistar" strain, of the average weight of 200 g., which had been held, before experiment, in the cages for 10 days at standard ambient conditions (temperature 22° C, humidity about 50%) on a controlled diet (Altromin).
72 hours before the test the animals, distributed into individual cages, were deprived of food while leaving water "ad libitum".
At the end of this time, the animals were anaesthetized with ether and, by opening the abdomen, the tying of the pylorus was effected as well as, thereafter, the administration of the products in the dose of 100 mg/Kg dissolved into peanut oil. The suture of the abdomen was then performed and the animals were then placed again into their respective contention cages.
For each product 15 animals were used whilst another set of 15 animals, which served as control, was given peanut oil at the same volume as that of the treated ones.
After 18 hours from administration of the products, the animals were killed under chloroformic narcosis, the stomachs were removed and opened along the greter curvature and then fixed on cork supports for counting the number of ulcers present in the "rumen" and for evaluating the depth of the lesions by arbitrarily assigning values ranging from 1 to 4 according to the intensity of the lesion.

Regarding `CC(=O)N[C@@H](Cc1ccccc1)C(=O)N[C@@H](Cc1ccccc1)C(=O)N[C@@H](Cc1c[nH]cn1)C(=O)O` [N-acetyl-l-phenylalanyl-l-phenylalanyl-l-histidine] (Ac-Phe-Phe-His-OH), in data set [1], the “Mouse LD50” value is given as no less than 5000 mg/Kg/os. The LD50 entry in data set [1] (mouse, oral, in peanut oil) is “approximately 5 g./Kg”. Also, in data set [2], the “Rat (Shay test) Ulcer depth M ± es” value is 2.1 ± 0.3 and the “Rat (Shay test) No. of ulcers M ± es” value came to 8.4 ± 1.8.
For the compound `COC(=O)[C@H](Cc1c[nH]cn1)NC(=O)[C@H](Cc1ccccc1)NC(=O)[C@H](Cc1ccccc1)NC(C)=O` [N-acetyl-l-phenylalanyl-l-phenylalanyl-l-histidine methylester], in data set [1], the “Mouse LD50” value is greater than 5000 mg/Kg/os. Also, in data set [2], the “Rat (Shay test) Ulcer depth M ± es” value is 1.1 ± 0.3 and the “Rat (Shay test) No. of ulcers M ± es” value is recorded as 4.6 ± 1.1.
The like results for `CC(=O)N[C@@H](Cc1ccccc1)C(=O)N[C@H](Cc1ccccc1)C(=O)N[C@@H](Cc1c[nH]cn1)C(N)=O` [N-acetyl-l-phenylalanyl-d-phenylalanyl-l-histidineamide] (Ac-Phe-[dF]-His-NH2) were, in that order, greater than 5000 mg/Kg/os, 1.3 ± 0.2 and 6.2 ± 1.6.
In the case of `COC(=O)[C@H](Cc1c[nH]cn1)NC(=O)[C@@H](Cc1ccccc1)NC(=O)[C@H](Cc1ccccc1)NC(C)=O` [N-acetyl-l-phenylalanyl-d-phenylalanyl-l-histidine-methylester], in data set [1], the “Mouse LD50” value is reported as greater than 5000 mg/Kg/os. Besides, in data set [2], the “Rat (Shay test) Ulcer depth M ± es” value worked out at 1.5 ± 0.4 and the “Rat (Shay test) No. of ulcers M ± es” value stood at 5.6 ± 1.5.
The like results for `CNC(=O)[C@H](Cc1c[nH]cn1)NC(=O)[C@H](Cc1ccccc1)NC(=O)[C@H](Cc1ccccc1)NC(C)=O` [N-acetyl-l-phenylalanyl-l-phenylalanyl-l-histidine methylamide] (Ac-Phe-Phe-His-NHMe) were, in that order, greater than 5000 mg/Kg/os, 1.4 ± 0.3 and 5.8 ± 1.4.
In the same order, the values of `CC(=O)N[C@@H](Cc1ccccc1)C(=O)N[C@@H](Cc1ccccc1)C(=O)N[C@@H](Cc1c[nH]cn1)C(N)=O` [N-acetyl-l-phenylalanyl-l-phenylalanyl-l-histidineamide] (Ac-Phe-Phe-His-NH2) are greater than 5000 mg/Kg/os, 1.1 ± 0.4 and 3.1 ± 1.7.
The like results for `COC(=O)C(Cc1c[nH]cn1)NC(=O)C(Cc1ccccc1)NC(=O)C(Cc1ccccc1)NC(C)=O` (mixture of isomers) [N-acetyl-dl-phenylalanyl-dl-phenylalanyl-dl-histidine methylester] were, in that order, greater than 5000 mg/Kg/os, 1.7 ± 0.2 and 6.7 ± 1.7.

The record behind these values is patent US4048305A, “Tripeptides, their esters and amides, and anti-ulcera activity thereof” (Dr. L. Zambeletti S.p.A., priority 1975, dated 1977).
